Measured values from patent US11701360B2, “Composition for inducing differentiation and protection of neural stem cells and method for inducing neuro-regeneration using the same composition” (GENUV Inc., priority 2017, dated 2023).

Legend:
[1] = test system: mouse embryonic neural stem cells; assay: Morphology analysis (phase-contrast) of NSC differentiation in mouse embryonic neural stem cells; type: cell-based; conditions: 4 days of culture
Protocol: Neural stem cells were isolated from the brain of a day 14.5 mouse embryo, treated with 10 ng/ml human basic fibroblast growth factor (bFGF) (Peprotech, Princeton, NG, cat #0.100-18B) and 20 ng/ml human epidermal growth factor (EGF) (Peprotech, cat #. AF-100-15) in a N2 culture medium, and cultured in suspension in a 25 cm2 flask (Nunc, Pittsburgh, Pa.) for 4 days. Formation of neurospheres was observed after 2 days.
In order to isolate single cells, 6-well plates were prepared the day before by treating the wells with 15 μg/ml poly-L-ornithine (Sigma, St. Louis, Mo., cat #.P2533) solution and incubating overnight at 37° C. for coating. The day of the single cell isolation, poly-L-ornithine solution was removed, the plates were washed with PBS three times, and 10 μg/ml fibronectin (Gibco, Waltham, Mass., cat #. 33016015) solution was added and incubated at 37° C. for 2 hours for coating.
Various concentrations of the compound of [Formula 1]
FIG. 10b is the analysis of Tuj1 mRNA expression in the cells of each group.

[2] = test system: mouse adult neural stem cells; conditions: 10 nM and 100 nM; regardless of 10 μM amyloid-beta; 4 days
Protocol: NSC were isolated from the subventricular zone of week 8 mouse brain, treated with 20 ng/ml human basic fibroblast growth factor (bFGF) and 20 ng/ml human epidermal growth factor (EGF) in an IPM medium, and cultured as a suspension in 24-well plates for 7 days.
Two days before the isolation of single cells, 6-well plates were prepared by treating the wells with 10 μg/ml poly-L-ornithine solution and incubating overnight at room temperature for coating. The next day, poly-L-ornithine solution was removed and the plates were washed 3 times with sterilized triple distilled water. […] The culture solution used is N2 culture medium (supplemented with 20 ng/ml bFGF and 20 ng/ml EGF). Right before seeding, the coating solution was suctioned out, and the single cells were uniformly seeded into the culture plate before the plate dried up. Cells were allowed to attach to the plates for about one minute, and after checking that cells were sufficiently attached, an additional 1.5 ml of culture medium (N2 culture medium with 20 ng/ml bFGF and 20 ng/ml EGF) was added to the cells and cultured in a 37° C. incubator for 24 hours.
Wells not treated with amyloid-beta were left to use as negative controls.
Gibco's (Waltham, Mass.) human Aβ (1-42) was purchased to use for the amyloid-beta (Aβ), and the following process was followed to create oligomers. […] Then, it was dried for 10 minutes in a speed Vac, after which DMSO (Sigma, cat #.D2650) was added to bring the concentration to 5 mM and then lightly vortexed at room temperature for 10 minutes. […] The solution was incubated at 4° C. for 24 hours and then added into the cultured cells.
The NCSs were cultured with the daily addition of EGF, bFGF, amyloid-beta, and test materials for 4 days.

[3] = test system: mouse embryonic neural stem cells; assay: Immunocytochemistry analysis (Tuj1/DAPI staining); type: cell-based; conditions: 10 nM; 4 days
Protocol: Tuj1 (Neuron specific class III beta-tubulin) is a neuron specific marker protein, which was conjugated to rhodamine to show fluorescent red, while DAPI binds to the cell DNA and stains the cell nuclei fluorescent blue. […] The medium was removed and the cells were washed with PBS. After fixing with 10% formaldehyde (Sigma cat #. HT501128) at room temperature for 10 minutes, they were washed again with PBS. They were permeabilized with 0.2% Triton X-100 (Sigma, cat #. 93443) at room temperature for 15 minutes, washed with PBS, and incubated with 10% BSA (Sigma, cat #. A2153)+1% normal goat serum (Vector lab, Burlingame, Calif., cat #. S1000) at room temperature for 1 hour. […] The solution was removed, washed with PBS, and incubated at room temperature for 1 hour with the secondary antibody (rhodamine-conjugated antibody) diluted in 1% BSA+1% normal goat serum at a ratio of 1:200. Then, the cells were washed with PBS, incubated with 5 μg/ml DAPI (Sigma, cat #. D9542) for 5 minutes, washed with PBS again, and mounted on a slide glass for analysis with a fluorescent microscope.

[4] = test system: mouse embryonic neural stem cells; assay: qRT-PCR of neuronal marker mRNA expression in mouse embryonic NSC; type: cell-based
Protocol: Isopropanol (Ducsan, GyunggiDo, Korea, cat #. 67-63-0) was added and mixed for RNA isolation, then centrifuged again to remove the supernatant and obtain the pellet. The RNA pellet was resuspended in 75% ethanol (Ducsan, cat #. 64-17-15), centrifuged, and the supernatant removed. The pellet was then resuspended in sterilized triple distilled water to obtain the mRNA, incubated for 10 minutes at 55° C., and stored at −80° C.
Sterilized triple distilled water, 1 pM oligo dT, and 1 mM dNTP were added to the RNA and incubated for 5 minutes at 65° C. This was followed by the addition of 5× First-strand buffer, 10 mM DTT, and M-MLV reverse transcriptase and incubated at 42° C. for 1 hour, then at 72° C. for 15 minutes, and at 4° C. for 30 minutes. The synthesized cDNA was stored at −20° C.
The term relative mRNA expression level signifies that in order to normalize each group's total RNA level, the mRNA expression level of each differentiation marker is divided by the expression level of GAPDH whose expression level is fairly constant across cells, and then the values of each test material are compared with those of the controls (undifferentiated NSC) in each group.

[5] = test system: mouse adult neural stem cells; assay: qRT-PCR of neuronal marker mRNA expression in mouse adult NSC; type: cell-based; conditions: 10 nM; 2 days
[6] = test system: 5XFAD mouse; assay: NeuN immunohistochemical staining of brain slices, 5XFAD AD model mouse; type: in vivo; conditions: orally daily for 28 days; vs vehicle
Protocol: The mouse was then anesthetized and perfused with PBS for the extraction of the brain. […] The other half of the hemispheres plus another 3 extracted mice brains per group were placed in 10% formalin solution at 4° C. for 1 day, which was then followed with the proceeding steps to allow good penetration of paraffin into the brain tissue. The brain tissues were immersed sequentially in 70%, 80%, 95%, 100% alcohol for 1 hour each for dehydration, then immersed in xylene 3 times for 1 hour each for clearing, and embedded in paraffin by placing in liquid paraffin 2 times for 1 hour each. After these procedures, the paraffin-embedded brain tissue (paraffin block) was cut into 5 μm sections, mounted on slides, and stored at room temperature. […]
FIG. 13b indicates the number of NeuN stained cells counted and represented as the percentage of the number of cells per unit area in the motor cortex layer 5 region. Area samples were taken from 6 areas per mouse, 3 mice per group, so the number of cells counted was from a total of 18 areas.
FIG. 14b indicates the number of NeuN stained cells counted and represented as the percentage of the number of cells per unit area in the dotted area of the hippocampal subiculum shown in FIG. 14a. Area samples were taken from 3 areas per mouse, 3 mice per group, so the number of cells counted was from a total of 9 areas.

[7] = test system: 5XFAD mouse; assay: Tuj1 staining in the somatosensory cortex, 5XFAD mouse; type: in vivo
Protocol: Anti-Tuj1 antibodies were added to the brain tissue slides of 5XFAD mouse in Example 8 and incubated at 4° C. for 1 day, after which the tissue slides were fluorescently stained by incubating with Fluorescein isothiocyanate (FITC)-secondary antibodies (Invitrogen, cat #. A21121) at room temperature for 1 hour. In FIG. 15, the areas marked with arrows (→) indicate cells stained with Tuj1 and the areas marked with arrowheads (▾) indicate plaques formed by amyloid-beta aggregation. Plaques were present in both vehicle-treated and trametinib-treated groups.

[8] = test system: 5XFAD mouse; assay: Nissl, NeuN and DCX staining in the hippocampal dentate gyrus, 5XFAD mouse; type: in vivo; conditions: orally daily for 28 days
Protocol: After placing in 0.1% cresyl violet (Sigma, cat #. C5042) solution at room temperature for 15 minutes, they were dehydrated by sequentially immersing in 80%, 90%, 100% alcohol, and xylene. Coverslips were put on the slides and the neurons examined.
NeuN staining was performed by the same method as described in Example 8 as was DCX staining, but using anti-DCX antibodies (Santa Cruz, cat #. sc271390) instead of anti-NeuN antibodies.

[9] = test system: 5XFAD mouse; assay: TUNEL assay of apoptosis in brain slices, 5XFAD mouse; type: in vivo; conditions: orally daily for 28 days; vs vehicle
Protocol: The TUNEL assay stains the 3′-hydroxyl terminus of fragmented DNA, allowing the detection of cells undergoing apoptosis in the tissue.
Specifically, the brain tissue slides were permeabilized with 20 μg/ml proteinase K solution for 10 minutes, incubated with equilibration buffer for 10 minutes, and then incubated with TdT solution at 37° C. for 1 hour.

[10] = test system: 5XFAD mouse; assay: Tuj1 and calbindin staining of cerebellar Purkinje cells, 5XFAD mouse; type: in vivo; conditions: particularly 0.1 mg/kg; vs vehicle
Text: Two slides for Tuj1 staining and three for calbindin staining are shown for each treatment group.

[11] = test system: pERK; assay: Western blotting of pERK in brain hemispheres, 5XFAD mouse; type: in vivo; conditions: 0.1 mg/kg and 1.0 mg/kg PO; vs vehicle
[12] = test system: Aβ(1-40) and Aβ(1-42); assay: ELISA of Aβ(1-40) and Aβ(1-42) in brain hemispheres, 5XFAD mouse; type: in vivo; conditions: orally daily for 28 days; vs vehicle
[13] = test system: MEK 1, MEK2; conditions: cited from earlier work
[14] = test system: 5XFAD mouse; assay: BrdU staining in the hippocampal dentate gyrus, 5XFAD mouse; conditions: orally daily for 28 days; vs vehicle
Protocol: For the BrdU staining to be performed later, 50 mg/kg of BrdU (Sigma, cat #. B5002) was added to the daily dose for the last 5 days. The mouse was then anesthetized and perfused with PBS for the extraction of the brain. […] The other half of the hemispheres plus another 3 extracted mice brains per group were placed in 10% formalin solution at 4° C. for 1 day, which was then followed with the proceeding steps to allow good penetration of paraffin into the brain tissue. The brain tissues were immersed sequentially in 70%, 80%, 95%, 100% alcohol for 1 hour each for dehydration, then immersed in xylene 3 times for 1 hour each for clearing, and embedded in paraffin by placing in liquid paraffin 2 times for 1 hour each. After these procedures, the paraffin-embedded brain tissue (paraffin block) was cut into 5 μm sections, mounted on slides, and stored at room temperature. Prior to immunohistochemical staining, the tissues on the slides were rehydrated by sequentially immersing in xylene, 100%, 90%, 80%, 70%, 50% alcohol, and then water for 5 minutes each. […] The next day, the slides were incubated with anti-rabbit antibodies (Vector lab, cat #. PI-1000) at room temperature for 1 hour and then stained with DAB staining for the analysis of the neuronal distribution in the brain.

[15] = 1 nM, 10 nM, 25 nM, 100 nM, 2 days

For `CC(=O)Nc1cccc(-n2c(=O)n(C3CC3)c(=O)c3c(Nc4ccc(I)cc4F)n(C)c(=O)c(C)c32)c1` [trametinib, N-(3-{3-cyclopropyl-5-[(2-fluoro-4-iodophenyl)amino]-6,8-dimethyl-2,4,7-trioxo-3,4,6,7-tetrahydropyrido[4,3-d]pyrimidin-1(2H)-yl}phenyl)acetamide], the “differentiation of NSC into neurons (morphology)” value ([1]; 10 nM, 25 nM and 100 nM) was “readily induced the differentiation of NSC into neurons”, the “concentration at which differentiation of NSC into neurons is seen” value [1] was ≥ 10 nM and the “differentiation of NSC into neurons (morphology)” value [2] was “readily induced the differentiation of NSC into neurons”. For the same compound, the “neuron differentiation (Tuj1 staining)” value [3] was “increasingly active differentiation activity”, the “mRNA expression of GABAergic neuron marker Gad1” value [4, 15] was “increased with the increase in concentration” and the “mRNA expression of cholinergic neuron marker ChAT” value [4, 15] was “increased with the increase in concentration”. The “mRNA expression of dopaminergic neuron marker TH” value [4, 15] was “increased with the increase in concentration”, the “mRNA expression of motor neuron marker Isl1” value [4, 15] was “increased with the increase in concentration” and the “concentration at which differentiation-inducing effect is exerted (Tuj1, TH mRNA)” value ([4]; 4 days) was 1 nM. The “mRNA expression of cholinergic neuron marker ChAT” value [5] was “increased”, the “mRNA expression of dopaminergic neuron marker TH” value [5] was “increased” and the “mRNA expression of neuronal marker Tuj1” value [5] was “increased”. For the same compound, the “number of NeuN stained neurons, hippocampal subiculum” value [6] was “significant increase in the number of neurons”, the “number of NeuN stained neurons, motor cortex layer 5” value [6] was “significant increase in the number of neurons” and the “lowest dose showing neural stem cell differentiation-inducing activity” value [7] was 0.1 mg/kg/day. The “immature neurons stained by DCX in dentate gyrus” value [8] was “seen to be present”, the “number of cells with Type 2 or Type 3 morphology in dentate gyrus (Nissl and NeuN staining)” value [8] was “increased considerably” and the “number of TUNEL stained cells in somatosensory cortex and subiculum” value [9] was “significantly lower”. For the same compound, the “axon structure of cerebellar Purkinje cells” value [10] was “increased axon arborization or at least with preserved axon structure”, the “protein level of pERK in the brain” value [11] was “considerably lower” and the “amount of Aβ(1-42)/Aβ(1-40) in brain” value [12] was “decreased”. For the same compound, the IC50 [13] was 0.92 to 3.4 nM and the “number of cells stained with BrdU in the dentate gyrus” value [14] was “an increase in the number of cells stained with BrdU”.
